Data: paper PMC11104609, “Discovery of allosteric regulators with clinical potential to stabilize alpha-L-iduronidase in mucopolysaccharidosis type I” (PLOS ONE, 2024)

Assays:
rhIDUA (Aldurazyme) [1] = target: T1, rhIDUA (Aldurazyme) (Homo sapiens, UniProt P35475); assay: IDUA assay in plasma of mice co-administered rhIDUA and GT-01803; assay type: in vivo, male C57BL/6 mice; conditions: GT-01803 5, 10, 20 mg/kg i.v. + rhIDUA 1.2 mg/kg i.v.; 0.5, 1, 2 h; dose-dependent, significant at 20 mg/kg
T1 sequence (P35475 28-653): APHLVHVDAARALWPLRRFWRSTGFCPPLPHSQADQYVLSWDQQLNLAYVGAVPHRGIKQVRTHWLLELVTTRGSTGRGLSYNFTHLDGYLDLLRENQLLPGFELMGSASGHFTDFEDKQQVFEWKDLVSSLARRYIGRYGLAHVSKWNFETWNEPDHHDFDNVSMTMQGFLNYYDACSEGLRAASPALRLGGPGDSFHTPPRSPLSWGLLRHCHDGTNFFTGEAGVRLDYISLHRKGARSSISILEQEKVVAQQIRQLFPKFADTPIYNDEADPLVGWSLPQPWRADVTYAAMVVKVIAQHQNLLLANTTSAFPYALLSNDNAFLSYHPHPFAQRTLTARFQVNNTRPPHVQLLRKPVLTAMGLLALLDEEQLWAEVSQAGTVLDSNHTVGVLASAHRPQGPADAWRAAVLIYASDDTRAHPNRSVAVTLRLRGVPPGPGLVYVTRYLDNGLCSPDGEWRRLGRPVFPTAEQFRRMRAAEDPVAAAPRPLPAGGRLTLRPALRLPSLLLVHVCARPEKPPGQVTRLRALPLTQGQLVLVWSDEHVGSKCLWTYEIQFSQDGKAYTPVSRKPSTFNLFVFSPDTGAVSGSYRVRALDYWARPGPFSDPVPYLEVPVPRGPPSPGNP
Protocol: (§1) Mice studies were performed by Sai Life Sciences (Pune, India). All procedures of the present study were in accordance with the guidelines provided by the Committee for the Purpose of Control and Supervision of Experiments on Animals (CPCSEA) as published in The Gazette of India, December 15, 1998. In addition, prior approval from the Institutional Animal Ethics Committee (IAEC) was obtained before the initiation of the study. Healthy male C57BL/6 mice (8–10 weeks old) weighing between 22 and 25 g were procured (Global, Pune, India). Three to five mice were housed in each cage. Temperature and humidity were maintained at 22 ± 2 °C and 41–63%, respectively, and illumination was controlled to give a sequence of a 12 h light and 12 h dark cycle. In the study’s in-life phase, we provided all mice with cage enrichment to minimize anxiety. We conducted bone marrow sampling under isoflurane anesthesia, maintaining it throughout the entire procedure. […] All procedures were carried out according to our in-house Standard Operating Procedures and monitored by a veterinarian if required. […]
Plasma samples from mice were collected at 0.5, 1 and 2 h after treatment with compound #18 (GT-01803). […] The plate was read at excitation 355 nm and emission 460 nm in TECAN Infinite® M1000 Pro reader (Thermo Fisher Scientific, UK). […]

rhIDUA (Aldurazyme) [2] = target: T1, rhIDUA (Aldurazyme); assay: IDUA assay in bone marrow of mice co-administered rhIDUA and GT-01803; assay type: in vivo, male C57BL/6 mice; conditions: GT-01803 5, 10, 20 mg/kg i.v. + rhIDUA 1.2 mg/kg i.v.; 6, 8, 10 h; dose-dependent, significant at 20 mg/kg
Protocol: as §1
Bone marrow samples from mice were collected at 2, 6, 8 and 10 h after treatment with compound #18 (GT-01803). […] The relative fluorescence unit (RFU) in the IDUA enzymatic assay was measured in duplicates (two replicates) and then averaged to obtain the enzyme activity per animal.

[3] = Precipitation observed in DSF dose response; assay type: physicochemical; conditions: DSF buffer 100 mM Hepes, 20 mM MgCl2, pH 7, 1% DMSO
Protocol: The capacity of the compounds to stabilise IDUA was assessed by DSF. The thermal denaturation of purified human native enzyme was monitored in the presence of the extrinsic fluorescent probe SYPRO® Orange (Thermo Fisher Scientific, Waltham, MA, USA), which binds to hydrophobic parts of proteins that become exposed as the protein unfolds. […] Reactions containing 12.5 μL of 1.5 μM rhIDUA protein (purchased from R&D Systems) in 100 mM Hepes, 20 mM MgCl2, pH 7, to a final protein concentration of 0.75 μM with SYPRO Orange 10X, and 12.5 μL of the different compound solutions dissolved in 100% DMSO and diluted into the protein buffer to achieve final concentrations of 1% DMSO. The intensity of SYPRO Orange fluorescence after a systematic increase in temperature was monitored in the Roche LightCycler® 480 II device (Roche Diagnostics). The significance of the melting temperature (Tm) shifts was evaluated based on two criteria: absolute ΔTm shift > 0.5 °C (instrumental criterion) and absolute ΔTm standard deviation ≤ 0.2 (statistical criterion). The thermal shift dose response was performed at various increasing concentrations (from 0.04 to 90 μM) of compound #18 (GT-01803) with rhIDUA (obtained from the Institute of Biotechnology and Biomedicine at the Autonomous University of Barcelona (UAB), Bellaterra, Spain).

- IDUA enzymatic activity levels in plasma (rhIDUA (Aldurazyme) [1]): increased
- IDUA enzymatic activity levels in bone marrow (rhIDUA (Aldurazyme) [2]): increased
- concentration at which precipitation was observed [3]: 100 µM
Compound: CCN(CC(=O)Nc1c(Cl)cccc1Cl)Cc1nc2ccsc2c(=O)[nH]1 [GT-01803]
